Assay results: patent publication US10597366B2, “Aryl ethers and uses thereof” (Peloton Therapeutics, Inc., priority 2013, dated 2020)
Like-named read-outs stand apart in the source and are kept apart here.

Test system: 786-O-Hif-Luc cells (luciferase gene driven by multiple HIF responsive elements)
Assay: Luciferase Assay
Type: cell-based
Conditions: 24 h, read-out: Mean Luciferease EC50
Protocol: A pool of infected cells were then selected against 2 μg/mL of puromycin (P8833, Sigma) for 10 days followed by limited dilution to select single clones.
Each concentration was tested in triplicate. After about 24 hours, luciferase activity was determined using ONE-Glo Luciferase Assay Reagent (E6110, Promega) following the manufacturer's recommended procedure. EC50 were calculated by using Dotmatics software.

[1] = 786-O-Hif-Luc cells, about 24 hours

Row | Compound | EC50 [1] | EC50
1 | N#Cc1cc(F)cc(Oc2ccc(S(=O)(=O)C(F)F)c3c2CC(F)(F)C3O)c1 (centres unmarked) [Compound 11, 3-[7-(difluoromethylsulfonyl)-2,2-difluoro-1-hydroxy-indan-4-yl]oxy-5-fluoro-benzonitrile] | 16 nM | –
2 | COc1cc(F)cc(Oc2ccc(S(=O)(=O)C(F)F)c3c2CC[C@H]3O)c1 [Compound 6, (R)-7-((difluoromethyl)sulfonyl)-4-(3-fluoro-5-methoxyphenoxy)-2,3-dihydro-1H-inden-1-ol] | 75 nM | –
3 | CS(=O)(=NC#N)c1ccc(Oc2cc(F)cc(C#N)c2)c2c1[C@H](O)[C@H](F)C2 (stereo partly drawn) [Compound 302, N-(((2R,3S)-7-(3-cyano-5-fluorophenoxy)-2-fluoro-3-hydroxy-2,3-dihydro-1H-inden-4-yl)(methyl)(oxo)-λ^6-sulfanylidene)cyanamide] | 110 nM | –
4 | O=Cc1c(S(=O)(=O)C(F)(F)F)ccc(Oc2cc(F)cc(Cl)c2)c1Br [Compound 101, 2-Bromo-3-(3-chloro-5-fluorophenoxy)-6-((trifluoromethyl)sulfonyl)benzaldehyde] | 320 nM | –
5 | [2H]C([2H])([2H])S(=O)(=O)c1ccc(Oc2cc(F)cc(C#N)c2)c2c1[C@]([2H])(O)C(F)(F)C2 [Compound 229] | – | 24 nM
6 | O=S(=O)(CF)c1ccc(Oc2cc(F)cc(Cl)c2)c2c1[C@H](O)CC2 [Compound 61, (R)-4-(3-Chloro-5-fluorophenoxy)-7-((fluoromethyl)sulfonyl)-2,3-dihydro-1H-inden-1-ol] | 110 nM | –
7 | N#Cc1cc(F)cc(Oc2ccc(S(N)(=O)=O)c3c2[C@H](F)C(F)(F)[C@H]3O)c1 [Compound 339, (1S,3S)-7-(3-cyano-5-fluoro-phenoxy)-1,2,2-trifluoro-3-hydroxy-indane-4-sulfonamide] | – | 250 nM
8 | CS(=O)(=O)c1ccc(Oc2cc(F)cc(C#N)c2)c2c1[C@H](O)[C@H](F)C2 [Compound 231, 3-Fluoro-5-(((1S,2R)-2-fluoro-1-hydroxy-7-(methylsulfonyl)-2,3-dihydro-1H-inden-4-yl)oxy)benzonitrile] | – | 36 nM
9 | O=S(=O)(CF)c1ccc(Oc2cccc3sccc23)c2c1C(O)C(F)(F)C2 (centres unmarked) [Compound 242, 4-(Benzo[b]thiophen-4-yloxy)-2,2-difluoro-7-((fluoromethyl)sulfonyl)-2,3-dihydro-1H-inden-1-ol] | 510 nM | –
10 | Cc1c(Oc2cc(F)cc(C#N)c2)ccc(S(=O)(=O)C(F)(F)F)c1CO [Compound 146, 3-Fluoro-5-[3-(hydroxymethyl)-2-methyl-4-(trifluoromethylsulfonyl)phenoxy]benzonitrile] | 480 nM | –
11 | CS(=O)(=O)c1ccc(Oc2cc(F)cc(C#N)c2)c2c1[C@H](O)[C@H](F)[C@@H]2O [Compound 296, 3-fluoro-5-[(1S,2R,3R)-2-fluoro-1,3-dihydroxy-7-methylsulfonyl-indan-4-yl]oxy-benzonitrile] | 1300 nM | –
12 | CS(=O)(=O)c1ccc(Oc2cncc(Cl)c2)c2c1[C@H](O)C(F)(F)C2 [Compound 115, (S)-4-((5-Chloropyridin-3-yl)oxy)-2,2-difluoro-7-(methylsulfonyl)-2,3-dihydro-1H-inden-1-ol] | 300 nM | –
13 | N#Cc1cccc(Oc2ccc(S(=O)(=O)C(F)F)c3c2CC[C@H]3O)c1 [Compound 156, 3-[(1R)-7-(Difluoromethylsulfonyl)-1-hydroxy-indan-4-yl]oxybenzonitrile] | – | 350 nM
14 | CS(=O)(=O)c1ccc(Oc2cncc(Br)c2)c2c1[C@H](O)C(F)(F)C2 [Compound 324, (S)-4-((5-Bromopyridin-3-yl)oxy)-2,2-difluoro-7-(methylsulfonyl)-2,3-dihydro-1H-inden-1-ol] | 480 nM | –
15 | N#Cc1cccc(Oc2ccc(S(=O)(=O)C(F)(F)F)cc2Br)c1 [Compound 117, 3-(2-Bromo-4-((trifluoromethyl)sulfonyl)phenoxy)benzonitrile] | 3000 nM | –
16 | N#Cc1cc(F)cc(Oc2ccc(S(=O)(=O)C(F)(F)F)c3c2CC(F)(F)[C@H]3NCCO)c1 [Compound 291, 3-[(1S)-2,2-difluoro-1-(2-hydroxyethylamino)-7-(trifluoromethylsulfonyl)indan-4-yl]oxy-5-fluoro-benzonitrile] | 3100 nM | –
17 | C[S+]([O-])c1ccc(Oc2cc(F)cc(C#N)c2)c2c1[C@H](O)C(F)(F)C2 (stereo partly drawn) [Compound 272, 3-[(1S)-2,2-Difluoro-1-hydroxy-7-methylsulfinyl-indan-4-yl]oxy-5-fluoro-benzonitrile] | 2280 nM | –
18 | N#Cc1cc(F)cc(Oc2ccc(S(=O)(=O)C(F)F)c3c2CC(F)(F)[C@@H]3O)c1 [Compound 237, (R)-3-((7-((difluoromethyl)sulfonyl)-2,2-difluoro-1-hydroxy-2,3-dihydro-1H-inden-4-yl)oxy)-5-fluorobenzonitrile] | 120 nM | –
19 | N#Cc1cc(F)cc(Oc2ccc(S(=O)(=O)CCl)c3c2CC(F)(F)[C@H]3O)c1 [Compound 215, (S)-3-((7-((Chloromethyl)sulfonyl)-2,2-difluoro-1-hydroxy-2,3-dihydro-1H-inden-4-yl)oxy)-5-fluorobenzonitrile] | 22 nM | –
20 | O=S(=O)(CF)c1ccc(Oc2cc(F)cc(F)c2)c2c1C(O)CC2 [Compound 59, (R)-4-(3,5-Difluorophenoxy)-7-((fluoromethyl)sulfonyl)-2,3-dihydro-1H-inden-1-ol] | 90 nM | –
21 | Cc1c(Oc2cc(F)cc(Cl)c2)ccc(S(=O)(=O)C(F)(F)F)c1Cl [Compound 143, 3-Chloro-1-(3-chloro-5-fluoro-phenoxy)-2-methyl-4-(trifluoromethylsulfonyl)benzene] | 1200 nM | –
22 | O=C1c2c(S(=O)(=O)C(F)F)ccc(Oc3ccc(F)c(F)c3)c2CC1(F)F [Compound 195, 7-((Difluoromethyl)sulfonyl)-4-(3,4-difluorophenoxy)-2,2-difluoro-2,3-dihydro-1H-inden-1-one] | 2560 nM | –
23 | NCc1c(S(=O)(=O)C(F)F)ccc(Oc2cc(F)cc(Cl)c2)c1Br [Compound 85, (2-Bromo-3-(3-chloro-5-fluorophenoxy)-6-((difluoromethyl)sulfonyl)phenyl)methanamine] | 11800 nM | –
24 | CS(=O)(=O)c1ccc(Oc2cc(F)cc(Cl)c2)c2c1[C@H](O)C(F)(F)C2 [Compound 160, (1S)-4-(3-Chloro-5-fluoro-phenoxy)-2,2-difluoro-7-methylsulfonyl-indan-1-ol] | 10 nM | –
25 | O=S(=O)(c1ccc(Oc2cc(F)cc(F)c2)c2c1CCC2)C(F)F [Compound 20, 4-((Difluoromethyl)sulfonyl)-7-(3,5-difluorophenoxy)-2,3-dihydro-1H-indene] | 1910 nM | –
26 | Cc1cc(S(=O)(=O)C(F)F)ccc1Oc1cc(F)cc(C#N)c1 [Compound 136, 3-[4-(Difluoromethylsulfonyl)-2-methyl-phenoxy]-5-fluoro-benzonitrile] | 2400 nM | –
27 | CS(=O)(=O)c1ccc(Oc2cc(F)cc(Cl)c2)c2c1C(O)CC2 (centres unmarked) [Compound 90, 4-(3-Chloro-5-fluorophenoxy)-7-(methylsulfonyl)-2,3-dihydro-1H-inden-1-ol] | 850 nM | –
28 | O=[N+]([O-])c1ccc(Oc2cc(F)cc(Cl)c2)c2c1C(O)CC2 (centres unmarked) [Compound 255, 4-(3-Chloro-5-fluorophenoxy)-7-nitro-2,3-dihydro-1H-inden-1-ol] | 1390 nM | –
29 | N#Cc1cc(F)cc(Oc2ccc(S(=O)(=O)CF)c3c2CC[C@H]3O)c1 [Compound 62, (R)-3-Fluoro-5-((7-((fluoromethyl)sulfonyl)-1-hydroxy-2,3-dihydro-1H-inden-4-yl)oxy)benzonitrile] | 180 nM | –
